Source: the NIST ThermoML archive (doi:10.1021/je050085p)
± gives the expanded uncertainty stated by the source.

What was measured:
[1] = xn = mol fraction of the nth substance listed; settings: 308.15 K, 101 kPa, Liquid
[2] = refractive index (Na D-line) (dimensionless); xn = mol fraction of the nth substance listed; settings: 308.15 K, 101 kPa, Liquid, Standard Abbe refractometry
[3] = excess molar enthalpy (molar enthalpy of mixing); xn = mol fraction of the nth substance listed; settings: 308.15 K, 101 kPa, Liquid, Flow calorimetry
[4] = 101.33 kPa, Liquid
[5] = refractive index (Na D-line) (dimensionless); settings: 101.33 kPa, Liquid, Standard Abbe refractometry

OCCCc1ccccc1 [3-phenyl-1-propanol] + CCOc1ccccc1
mass density ([1]; x2 = 0.0636): 988.77 ± 0.52 kg/m3 | mass density ([1]; x2 = 0.1067): 987.22 ± 0.52 kg/m3 | mass density ([1]; x2 = 0.2164): 983.2 ± 0.52 kg/m3 | mass density ([1]; x2 = 0.31): 979.65 ± 0.52 kg/m3 | mass density ([1]; x2 = 0.417): 975.46 ± 0.52 kg/m3 | mass density ([1]; x2 = 0.515): 971.51 ± 0.52 kg/m3 | mass density ([1]; x2 = 0.6168): 967.29 ± 0.52 kg/m3 | mass density ([1]; x2 = 0.7074): 963.43 ± 0.52 kg/m3 | mass density ([1]; x2 = 0.7975): 959.53 ± 0.52 kg/m3 | mass density ([1]; x2 = 0.8977): 955.2 ± 0.5 kg/m3 | mass density ([1]; x2 = 0.9488): 952.99 ± 0.52 kg/m3 | mass density ([1]; x2 = 0.9596): 952.53 ± 0.52 kg/m3 | refractive index ([2]; x2 = 0.0636): 1.5203 ± 0.0007 | refractive index ([2]; x2 = 0.1067): 1.5194 ± 0.0007 | refractive index ([2]; x2 = 0.2164): 1.5173 ± 0.0007 | refractive index ([2]; x2 = 0.31): 1.5153 ± 0.0007 | refractive index ([2]; x2 = 0.417): 1.513 ± 0.0007 | refractive index ([2]; x2 = 0.515): 1.5109 ± 0.0007 | refractive index ([2]; x2 = 0.6168): 1.5086 ± 0.0007 | refractive index ([2]; x2 = 0.7074): 1.5066 ± 0.0007 | refractive index ([2]; x2 = 0.7975): 1.5045 ± 0.0007 | refractive index ([2]; x2 = 0.8977): 1.5023 ± 0.0007 | refractive index ([2]; x2 = 0.9488): 1.5012 ± 0.0007 | refractive index ([2]; x2 = 0.9596): 1.501 ± 0.0007 | excess molar enthalpy ([3]; x2 = 0.0427): 0.0329 ± 0.000837 kcal/mol | excess molar enthalpy ([3]; x2 = 0.0818): 0.0631 ± 0.00143 kcal/mol | excess molar enthalpy ([3]; x2 = 0.118): 0.088 ± 0.00196 kcal/mol | excess molar enthalpy ([3]; x2 = 0.1513): 0.114 ± 0.00239 kcal/mol | excess molar enthalpy ([3]; x2 = 0.211): 0.146 ± 0.00311 kcal/mol | excess molar enthalpy ([3]; x2 = 0.2629): 0.167 ± 0.00359 kcal/mol | excess molar enthalpy ([3]; x2 = 0.3485): 0.193 ± 0.00406 kcal/mol | excess molar enthalpy ([3]; x2 = 0.4162): 0.212 ± 0.00454 kcal/mol | excess molar enthalpy ([3]; x2 = 0.5169): 0.236 ± 0.00502 kcal/mol | excess molar enthalpy ([3]; x2 = 0.6162): 0.257 ± 0.0055 kcal/mol | excess molar enthalpy ([3]; x2 = 0.6815): 0.267 ± 0.00574 kcal/mol | excess molar enthalpy ([3]; x2 = 0.7625): 0.267 ± 0.00574 kcal/mol | excess molar enthalpy ([3]; x2 = 0.8106): 0.255 ± 0.0055 kcal/mol | excess molar enthalpy ([3]; x2 = 0.8596): 0.225 ± 0.00478 kcal/mol | excess molar enthalpy ([3]; x2 = 0.8954): 0.194 ± 0.0043 kcal/mol | excess molar enthalpy ([3]; x2 = 0.9277): 0.152 ± 0.00335 kcal/mol | excess molar enthalpy ([3]; x2 = 0.9625): 0.0896 ± 0.00208 kcal/mol

OCCCc1ccccc1 [3-phenyl-1-propanol] + COc1ccccc1
mass density ([1]; x2 = 0.0579): 990.46 ± 0.52 kg/m3 | mass density ([1]; x2 = 0.1201): 989.91 ± 0.52 kg/m3 | mass density ([1]; x2 = 0.2636): 988.55 ± 0.52 kg/m3 | mass density ([1]; x2 = 0.384): 987.28 ± 0.52 kg/m3 | mass density ([1]; x2 = 0.4475): 986.57 ± 0.52 kg/m3 | mass density ([1]; x2 = 0.5551): 985.27 ± 0.52 kg/m3 | mass density ([1]; x2 = 0.6495): 984.07 ± 0.52 kg/m3 | mass density ([1]; x2 = 0.7477): 982.78 ± 0.52 kg/m3 | mass density ([1]; x2 = 0.8274): 981.73 ± 0.52 kg/m3 | mass density ([1]; x2 = 0.8652): 981.26 ± 0.52 kg/m3 | mass density ([1]; x2 = 0.913): 980.67 ± 0.52 kg/m3 | mass density ([1]; x2 = 0.9588): 980.14 ± 0.52 kg/m3 | refractive index ([2]; x2 = 0.0579): 1.5208 ± 0.0007 | refractive index ([2]; x2 = 0.1201): 1.5201 ± 0.0007 | refractive index ([2]; x2 = 0.2636): 1.5186 ± 0.0007 | refractive index ([2]; x2 = 0.384): 1.5173 ± 0.0007 | refractive index ([2]; x2 = 0.4475): 1.5166 ± 0.0007 | refractive index ([2]; x2 = 0.5551): 1.5154 ± 0.0007 | refractive index ([2]; x2 = 0.6495): 1.5142 ± 0.0007 | refractive index ([2]; x2 = 0.7477): 1.5129 ± 0.0007 | refractive index ([2]; x2 = 0.8274): 1.5118 ± 0.0007 | refractive index ([2]; x2 = 0.8652): 1.5113 ± 0.0007 | refractive index ([2]; x2 = 0.913): 1.5108 ± 0.0007 | refractive index ([2]; x2 = 0.9588): 1.5101 ± 0.0007 | excess molar enthalpy ([3]; x2 = 0.0493): 0.0303 ± 0.000765 kcal/mol | excess molar enthalpy ([3]; x2 = 0.094): 0.059 ± 0.00134 kcal/mol | excess molar enthalpy ([3]; x2 = 0.1347): 0.0863 ± 0.00191 kcal/mol | excess molar enthalpy ([3]; x2 = 0.1719): 0.107 ± 0.00234 kcal/mol | excess molar enthalpy ([3]; x2 = 0.2374): 0.145 ± 0.00311 kcal/mol | excess molar enthalpy ([3]; x2 = 0.2934): 0.171 ± 0.00359 kcal/mol | excess molar enthalpy ([3]; x2 = 0.3838): 0.205 ± 0.0043 kcal/mol | excess molar enthalpy ([3]; x2 = 0.4536): 0.224 ± 0.00478 kcal/mol | excess molar enthalpy ([3]; x2 = 0.5547): 0.246 ± 0.00526 kcal/mol | excess molar enthalpy ([3]; x2 = 0.6514): 0.261 ± 0.0055 kcal/mol | excess molar enthalpy ([3]; x2 = 0.7136): 0.265 ± 0.00574 kcal/mol | excess molar enthalpy ([3]; x2 = 0.7889): 0.258 ± 0.0055 kcal/mol | excess molar enthalpy ([3]; x2 = 0.8328): 0.239 ± 0.00502 kcal/mol | excess molar enthalpy ([3]; x2 = 0.877): 0.207 ± 0.00454 kcal/mol | excess molar enthalpy ([3]; x2 = 0.9088): 0.175 ± 0.00382 kcal/mol | excess molar enthalpy ([3]; x2 = 0.9373): 0.133 ± 0.00287 kcal/mol | excess molar enthalpy ([3]; x2 = 0.9676): 0.0777 ± 0.00186 kcal/mol

COc1ccccc1 [anisole]
mass density ([4]; 298.15 K): 989.3 ± 0.52 kg/m3 | mass density ([4]; 308.15 K): 979.71 ± 0.52 kg/m3 | refractive index ([5]; 298.15 K): 1.5153 ± 0.0007 | refractive index ([5]; 308.15 K): 1.5095 ± 0.0007
